In patent US7071177B2, “P-(sulfonyl) aryl and heteroarylamines as anti-inflammatory agents” (Syntex (U.S.A.) LLC, priority 2000, dated 2006):

| melting point | SMILES |
| --- | --- |
| 56 to 59 °C | CCOc1ccc(CN(CCS(C)(=O)=O)c2ccc(S(C)(=O)=O)c(F)c2)cc1 [1-72, (4-ethoxy-benzyl)-(3-fluoro-4-methanesulfonyl-phenyl)-(2-methanesulfonyl-ethyl)-amine] |
| 85.7 to 86.6 °C | COc1ccc(CNS(=O)(=O)c2ccc(N(CCS(C)(=O)=O)Cc3ccc(C)cc3)cc2)cc1 [2-1, 4-[(2-methylsulfonyl-ethyl)-(4-methyl-benzyl)amino]-N-(4-methoxy-benzyl)-benzenesulfonamide] |
| 139.5 to 140.5 °C | CS(=O)(=O)CCN(Cc1ccccn1)c1ccc(S(C)(=O)=O)cc1 [1-45, 4-{N,N-[2-(methylsulfonyl)ethyl](pyridin-2-ylmethyl)amino}phenyl methyl sulfone] |
| 152.9 to 153.2 °C | CS(=O)(=O)CCN(Cc1ccc(F)cc1F)c1ccc(S(N)(=O)=O)cc1 [2-4, 4-[(2-methylsulfonyl-ethyl)-(2,4-difluorobenzyl)-amino]-benzenesulfonamide] |
| 169.1 to 170 °C | Cc1ccc(CN(CCS(C)(=O)=O)c2ccc(S(N)(=O)=O)cc2)cc1 [2-2, 4-[(2-methylsulfonyl-ethyl)-(4-methyl-benzyl)-amino]-benzenesulfonamide] |
